In article PMC10485906, “Development of a Dihydroquinoline–Pyrazoline GluN2C/2D-Selective Negative Allosteric Modulator of the N-Methyl-D-aspartate Receptor” (ACS Chemical Neuroscience, 2023):

Assays:
[1] = target: 42-nACh (Rattus norvegicus, UniProt P09483+P12390); assay: Off-target, oocytes, nicotinic acetylcholine 42; format: cell-based; details: 1 µM compound; 10 µM acetylcholine
Protocol: (§1) Analysis of Off-target Actions
(§2) Compound (S)-(-)-2i was tested at 1 µM for actions at glycine-activated GluN1/GluN3A (human GluN1-F484A,T518L/GluN3A referred to a GluN1-FA,TL/GluN3A) and rat GluN1-4a/GluN3B in the presence of 0.5 µM CGP-78608. cRNA injection ratios for GluN1/GluN3 were 1:2. Compound (S)-(-)- 2i was also tested for actions at AMPA (rat GluA1, rat GluA2, human GluA3-L531Y), kainate (rat GluK2), nicotinic acetylcholine (rat α7 and α4β2, cRNA ratio 1:1), GABAA (rat α1β2γ2S, cRNA ratio 1:1:1), GABAC (rat ρ1), glycine (rat α1), and purinergic (human P2X) receptors expressed in Xenopus oocytes. cRNA encoding the receptor subunits was synthesized from linear template cDNA using the mMessage mMachine kit (Ambion). Oocytes were injected with 1-5 ng cRNA in a 50 nL volume and incubated in Barth's solution at 15°C for 2-5 days prior to recording. GluK2-expressing oocyte were incubated in 1 mg/ml (10 µM) concanavalin-A for 10 min prior to recording. The cDNAs encoding GABAC and glycine subunits were provided by Dr. D. Weiss (University of Texas Health Science Center at San Antonio). cDNAs encoding nicotinic acetylcholine receptor subunits were provided by Drs. […]
(§3) GABA. […] Responses in presence of test compound were expressed as a percent of control. […]

[2] = target: α7-nACh (Rattus norvegicus, UniProt Q05941); assay: Off-target, oocytes, nicotinic acetylcholine α7; format: cell-based; details: 1 µM compound; 300 µM acetylcholine
Sequence of α7-nACh (Q05941 23-502): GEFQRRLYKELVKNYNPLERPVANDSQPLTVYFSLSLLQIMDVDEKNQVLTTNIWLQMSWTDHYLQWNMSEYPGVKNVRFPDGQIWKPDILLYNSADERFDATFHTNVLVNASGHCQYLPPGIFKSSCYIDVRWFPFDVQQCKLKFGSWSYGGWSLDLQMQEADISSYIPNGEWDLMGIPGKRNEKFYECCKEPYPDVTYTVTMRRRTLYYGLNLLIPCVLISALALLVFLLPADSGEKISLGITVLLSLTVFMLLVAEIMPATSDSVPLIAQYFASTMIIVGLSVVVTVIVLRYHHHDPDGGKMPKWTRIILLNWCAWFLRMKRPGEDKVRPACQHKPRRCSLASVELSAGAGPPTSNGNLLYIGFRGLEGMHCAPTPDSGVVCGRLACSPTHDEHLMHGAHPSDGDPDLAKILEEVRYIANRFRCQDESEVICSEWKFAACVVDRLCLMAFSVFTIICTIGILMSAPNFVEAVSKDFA
Protocol: as §1, §2, §3

[3] = target: T1, -GABAC (Rattus norvegicus, UniProt P50572); assay: Off-target, oocytes, GABAC; format: cell-based; details: 1 µM compound; 100 µM GABA
T1 construct: expressed in transfected cells; host or cells: Xenopus oocytes (cRNA injection)
T1 sequence (P50572 22-480): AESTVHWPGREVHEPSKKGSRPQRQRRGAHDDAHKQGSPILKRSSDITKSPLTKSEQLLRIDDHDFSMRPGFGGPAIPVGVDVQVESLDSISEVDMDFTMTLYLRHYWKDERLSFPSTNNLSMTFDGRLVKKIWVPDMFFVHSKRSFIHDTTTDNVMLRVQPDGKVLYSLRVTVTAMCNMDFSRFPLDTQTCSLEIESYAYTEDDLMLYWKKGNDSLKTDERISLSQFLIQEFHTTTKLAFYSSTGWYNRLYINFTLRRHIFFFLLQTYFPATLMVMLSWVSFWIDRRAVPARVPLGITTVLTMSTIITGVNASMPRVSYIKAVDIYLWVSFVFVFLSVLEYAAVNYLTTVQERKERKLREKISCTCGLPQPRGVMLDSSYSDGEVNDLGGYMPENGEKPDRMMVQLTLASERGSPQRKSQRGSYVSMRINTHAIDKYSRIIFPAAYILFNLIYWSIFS
Protocol: as §1, §2, §3

[4] = target: T2, α1-Glycine (Rattus norvegicus, UniProt P07727); assay: Off-target, oocytes, glycine receptor; format: cell-based; details: 1 µM compound; 100 µM glycine
T2 construct: expressed in transfected cells; host or cells: Xenopus oocytes (cRNA injection)
T2 sequence (P07727 29-457): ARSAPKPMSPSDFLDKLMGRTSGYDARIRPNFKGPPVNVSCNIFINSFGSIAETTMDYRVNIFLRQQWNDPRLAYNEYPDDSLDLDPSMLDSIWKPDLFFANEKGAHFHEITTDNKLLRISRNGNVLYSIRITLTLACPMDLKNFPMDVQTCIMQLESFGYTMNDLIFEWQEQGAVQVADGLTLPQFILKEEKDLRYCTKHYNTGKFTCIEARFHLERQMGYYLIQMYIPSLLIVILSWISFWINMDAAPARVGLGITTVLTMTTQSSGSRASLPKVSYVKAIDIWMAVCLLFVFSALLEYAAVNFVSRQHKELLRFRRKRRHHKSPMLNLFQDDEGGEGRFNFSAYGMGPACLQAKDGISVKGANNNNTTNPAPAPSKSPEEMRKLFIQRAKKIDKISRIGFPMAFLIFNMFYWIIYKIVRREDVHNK
Protocol: as §1, §2, §3

[5] = target: GluN1/GluN2C (Rattus norvegicus, UniProt Q00961); design: GluN2B (NM_012574.1), GluN2C (NM_012575.3), and GluN2D (NM_022797.2) were provided by; expressed in transfected cells; host or cells: Xenopus laevis oocytes (cRNA injection); details: reproduced for comparison; cited from earlier work
Sequence of GluN1/GluN2C (Q00961 20-1237, other chains not shown): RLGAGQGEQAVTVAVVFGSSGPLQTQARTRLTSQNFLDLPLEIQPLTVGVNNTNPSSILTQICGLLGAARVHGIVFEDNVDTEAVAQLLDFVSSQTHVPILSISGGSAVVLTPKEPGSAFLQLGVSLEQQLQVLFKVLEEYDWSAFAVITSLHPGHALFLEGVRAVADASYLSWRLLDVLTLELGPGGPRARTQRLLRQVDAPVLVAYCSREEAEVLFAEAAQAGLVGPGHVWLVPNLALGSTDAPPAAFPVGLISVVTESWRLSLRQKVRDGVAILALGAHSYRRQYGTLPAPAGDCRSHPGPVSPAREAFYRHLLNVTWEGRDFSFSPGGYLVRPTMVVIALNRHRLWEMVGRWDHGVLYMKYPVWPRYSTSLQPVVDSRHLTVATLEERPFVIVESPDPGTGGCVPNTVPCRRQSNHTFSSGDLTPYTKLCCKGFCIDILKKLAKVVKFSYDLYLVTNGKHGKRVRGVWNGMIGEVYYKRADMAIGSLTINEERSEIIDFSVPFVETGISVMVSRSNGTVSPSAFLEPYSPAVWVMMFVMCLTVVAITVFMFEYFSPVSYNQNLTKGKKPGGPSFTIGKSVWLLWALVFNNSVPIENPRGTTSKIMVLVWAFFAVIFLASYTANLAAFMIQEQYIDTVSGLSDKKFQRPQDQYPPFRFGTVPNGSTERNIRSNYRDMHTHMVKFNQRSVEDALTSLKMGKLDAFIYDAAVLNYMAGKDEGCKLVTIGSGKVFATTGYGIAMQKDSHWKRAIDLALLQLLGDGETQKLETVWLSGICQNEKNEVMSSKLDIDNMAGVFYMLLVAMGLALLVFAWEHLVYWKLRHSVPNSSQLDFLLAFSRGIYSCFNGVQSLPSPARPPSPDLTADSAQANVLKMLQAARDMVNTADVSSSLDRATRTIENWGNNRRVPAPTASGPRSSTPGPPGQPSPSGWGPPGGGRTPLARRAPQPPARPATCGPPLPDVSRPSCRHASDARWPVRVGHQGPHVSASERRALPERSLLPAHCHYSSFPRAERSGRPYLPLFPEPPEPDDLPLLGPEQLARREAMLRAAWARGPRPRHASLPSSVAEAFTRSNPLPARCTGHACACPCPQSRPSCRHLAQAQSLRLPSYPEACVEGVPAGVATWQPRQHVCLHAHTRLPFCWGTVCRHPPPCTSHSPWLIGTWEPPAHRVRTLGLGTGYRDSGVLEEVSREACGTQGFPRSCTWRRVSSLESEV

Sequence of 42-nACh (P09483 31-630): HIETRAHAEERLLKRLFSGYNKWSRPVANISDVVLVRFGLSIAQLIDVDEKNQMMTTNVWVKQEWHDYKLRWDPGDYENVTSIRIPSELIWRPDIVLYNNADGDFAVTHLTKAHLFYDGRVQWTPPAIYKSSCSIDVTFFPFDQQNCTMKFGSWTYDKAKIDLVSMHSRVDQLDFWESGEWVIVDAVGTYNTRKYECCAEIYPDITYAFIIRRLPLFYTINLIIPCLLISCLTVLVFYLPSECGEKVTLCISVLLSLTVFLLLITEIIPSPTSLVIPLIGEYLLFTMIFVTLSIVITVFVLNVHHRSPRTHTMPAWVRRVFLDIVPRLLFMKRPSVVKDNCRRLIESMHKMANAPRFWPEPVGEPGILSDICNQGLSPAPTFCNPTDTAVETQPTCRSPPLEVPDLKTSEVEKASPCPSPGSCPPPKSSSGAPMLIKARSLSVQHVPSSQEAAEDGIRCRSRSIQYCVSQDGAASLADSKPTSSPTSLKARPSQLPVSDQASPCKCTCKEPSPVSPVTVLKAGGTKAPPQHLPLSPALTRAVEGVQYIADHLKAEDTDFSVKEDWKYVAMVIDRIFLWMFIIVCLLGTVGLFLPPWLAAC
Sequence of 42-nACh (P12390 25-500): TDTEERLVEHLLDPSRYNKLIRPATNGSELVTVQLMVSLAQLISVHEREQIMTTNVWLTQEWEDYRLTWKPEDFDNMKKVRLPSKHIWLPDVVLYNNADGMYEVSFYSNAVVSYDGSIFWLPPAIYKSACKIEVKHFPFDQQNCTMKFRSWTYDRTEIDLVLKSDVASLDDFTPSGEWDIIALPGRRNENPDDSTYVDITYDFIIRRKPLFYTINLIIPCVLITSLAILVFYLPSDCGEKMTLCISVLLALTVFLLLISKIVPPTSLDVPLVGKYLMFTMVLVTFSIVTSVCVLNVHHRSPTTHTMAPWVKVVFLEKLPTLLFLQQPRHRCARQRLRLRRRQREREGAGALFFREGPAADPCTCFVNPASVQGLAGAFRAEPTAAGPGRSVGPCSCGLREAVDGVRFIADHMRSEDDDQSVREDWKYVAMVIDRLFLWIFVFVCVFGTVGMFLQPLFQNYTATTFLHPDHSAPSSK

Row | % control 42-nACh [1] | % control α7-nACh [2] | % control -GABAC [3] | % control α1-Glycine [4] | SMILES | I 30 μM / I control GluN2C [5]
1 | 91 ± 2.1% | 105 ± 13.5% | 96 ± 1.2% | 103 ± 2.4% | O=C(O)CC(F)(F)C(=O)N1N=C(c2c(-c3ccc(Cl)cc3)c3ccccc3[nH]c2=O)C[C@H]1c1ccc(Cl)cc1 [(S)-(−)-2i] | 
2 |  |  |  |  | O=C(O)CCC(=O)N1N=C(c2c(-c3ccc(Cl)cc3)c3ccccc3[nH]c2=O)CC1c1ccc(Cl)cc1 (centres unmarked) [2a] | 3.1 ± 0.6 (2,6) %
